Measurements published in PubChem BioAssay (NCI).
Several values for one entry are separate records, joined by “and”; a condition that tells them apart may be missing. Equal entries are not always repeated.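 Method: 48-hour compound exposure of cells in 96-well plates, five concentrations, linear interpolation of endpoints. GI50 is the concentration that inhibits growth by half. TGI is the concentration that stops growth completely.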

Experiments:
Experiment in all cases: inhibition of tumour cell growth, NCI panel, 48 h
CAKI-1 renal = tested on: CAKI-1 renal
HCT-116 colon = tested on: HCT-116 colon
HL-60(TB) leukemia = tested on: HL-60(TB) leukemia
KM12 colon = tested on: KM12 colon
OVCAR-8 ovarian = tested on: OVCAR-8 ovarian
RPMI-8226 leukemia = tested on: RPMI-8226 leukemia
SNB-19 CNS = tested on: SNB-19 CNS
SNB-75 CNS = tested on: SNB-75 CNS
SW-620 colon = tested on: SW-620 colon
UACC-62 melanoma = tested on: UACC-62 melanoma

Row | SMILES | GI50 (CAKI-1 renal) | TGI (CAKI-1 renal) | GI50 (HCT-116 colon) | TGI (HCT-116 colon) | GI50 (HL-60(TB) leukemia) | TGI (HL-60(TB) leukemia) | GI50 (KM12 colon) | TGI (KM12 colon) | GI50 (OVCAR-8 ovarian) | TGI (OVCAR-8 ovarian) | GI50 (RPMI-8226 leukemia) | TGI (RPMI-8226 leukemia) | GI50 (SNB-19 CNS) | TGI (SNB-19 CNS) | GI50 (SNB-75 CNS) | TGI (SNB-75 CNS) | GI50 (SW-620 colon) | TGI (SW-620 colon) | GI50 (UACC-62 melanoma) | TGI (UACC-62 melanoma)
1 | O=C1Nc2ccc(F)c3c(OCCO)cc(-c4ccc[nH]4)c1c23 | 0.393 µM | 3.33 µM | 1.15 µM | 20.4 µM | 1.14 µM | 7.44 µM | 0.274 µM | 2.37 µM | 2.76 µM | 18.3 µM | 1.82 µM | 8.18 µM | 3.66 µM | 14.9 µM | 1.52 µM | 7.02 µM | 0.837 µM | 8.23 µM | 2.78 µM | 6.33 µM
2 | COc1ccccc1-c1cc2c3c(nc4ccccc42)C(=O)c2cccnc2-c3n1 | 13 µM | 27.2 µM | 4.89 µM | 14.6 µM | > 100 µM | > 100 µM | 9.88 µM | 33.2 µM | 8.01 µM | 28.6 µM | 34.6 µM | > 100 µM | 17.4 µM | 33.8 µM | 8.89 µM | 22.6 µM | 9.58 µM | 27.3 µM | 16.4 µM | 36.7 µM
3 | OCCN1CCN(CCCN2c3ccccc3Sc3ccc(C(F)(F)F)cc32)CC1 | 2.61 µM and 11.3 µM and 6.93 µM | 9.5 µM and 25.7 µM and 21.6 µM | 1.55 µM | 5.52 µM | 2.52 µM and 11.5 µM and 2.06 µM | 9.06 µM and 29.3 µM and 5.56 µM | 2.35 µM and 8.95 µM | 8.01 µM and 21.6 µM | 4.46 µM and 13.6 µM and 14 µM | 11.4 µM and 28.5 µM and 28.8 µM | 1.54 µM | 4.69 µM | 2.08 µM and 14 µM and 12.3 µM | 8.34 µM and 30.8 µM and 27.3 µM | 2.04 µM and 10 µM and 6.62 µM | 9.16 µM and 22.4 µM and 21.8 µM | 1.93 µM and 11.7 µM and 4.22 µM | 8.01 µM and 25.4 µM and 16.2 µM | 0.824 µM and 2.48 µM and 2.08 µM | 1.62 µM and 6.83 µM and 4.44 µM
4 | CS(=O)(=O)C1S(=O)(=O)OCCOS1(=O)=O |  | > 100 µM |  | > 100 µM |  | > 100 µM |  | > 100 µM |  | > 100 µM |  | > 100 µM |  | > 100 µM |  | > 100 µM |  | > 100 µM |  | > 100 µM
5 | COc1ccc2c(c1)C(=O)c1c-2c(NCCCN(C)C)nc2ccccc12 | 12.5 µM | 29.6 µM | 1.25 µM | 2.65 µM | 2.63 µM | 12.3 µM | 2.05 µM | 5.72 µM | 1.74 µM | 7.67 µM | 1.93 µM | 4.39 µM | 7.44 µM | 21.2 µM | 0.997 µM | 11.8 µM | 1.45 µM | 2.99 µM | 2.09 µM | 4.41 µM
6 | COc1ccc(C(CC(=O)c2ccccc2)C(C(=O)c2ccccc2)C(c2ccc(OC)cc2)C2C(=O)NC(=O)NC2=O)cc1 (centres undefined) | 2.85 µM | 20.3 µM | 14.2 µM | 35.9 µM | 41.2 µM | > 100 µM | 19.1 µM | > 100 µM | 24.7 µM | 68.7 µM | 13.8 µM | > 100 µM | 13.7 µM | > 100 µM | 32.6 µM | > 100 µM | 26.3 µM | > 100 µM | 16.2 µM | 48.9 µM
7 | COc1ccc(CNc2cc(OC)cc(OC)c2)cc1 | > 100 µM and 34.6 µM | > 100 µM |  | > 100 µM |  | > 100 µM |  | > 100 µM |  | > 100 µM |  | > 100 µM |  | > 100 µM |  | > 100 µM and 96.8 µM |  | > 100 µM |  | > 100 µM
8 | CCCOC(=O)N[C@H]1CCc2c(Br)c(OC)c(OC)c(OC)c2-c2ccc(SC)c(=O)cc21 | 0.0339 µM | 19.2 µM | 0.0248 µM | 5.07 µM | 0.0245 µM | 0.0784 µM | < 0.0145 µM | 7.92 µM | 0.0438 µM | > 100 µM | 0.0259 µM | 10.4 µM | 0.0425 µM | > 100 µM | 0.0262 µM | 25.5 µM | 0.0245 µM | > 100 µM | 0.0365 µM | 13.2 µM
9 | OCC(O)CC[CH2][Sn]([c]1ccccc1)([c]1ccccc1)[c]1ccccc1 (centres undefined) | 8.12 µM | 21.5 µM | 10.8 µM | 22.7 µM | 11.3 µM | 35.3 µM | 13.9 µM | 29.8 µM | 15.7 µM | 31.5 µM | 14.4 µM | 47.5 µM | 19.4 µM | 33.7 µM | 15.4 µM | 29 µM | 13.2 µM | 26.9 µM | 16.1 µM | 29.8 µM
10 | CC1OCC2OC(C)OC(C3C4=C(CC(C)(C)CC4=O)OC4=C3C(=O)CC(C)(C)C4)C2O1 (centres undefined) |  | > 100 µM |  | > 100 µM |  | > 100 µM |  | > 100 µM |  | > 100 µM |  | > 100 µM |  | > 100 µM |  | > 100 µM |  | > 100 µM |  | > 100 µM
11 | Cc1c(Cl)cccc1NC(=O)CC1Sc2ccccc2NC1=O (centres undefined) |  | 77.4 µM and > 100 µM |  | 46.2 µM and 31.4 µM |  | 54.2 µM and 49.3 µM |  | > 91.6 µM and 45.9 µM |  | 33.3 µM and 43.3 µM |  | > 100 µM |  | 52.8 µM and 42.5 µM | 4.95 µM and 14.5 µM | 19 µM and 36.5 µM | 11 µM and 26.3 µM | 56.8 µM and 77.3 µM | 15.2 µM and 38.6 µM | 77.5 µM and > 100 µM
